Source: ChEMBL document CHEMBL4138123, “Design, synthesis and biological evaluation of novel pyrazolochalcones as potential modulators of PI3K/Akt/mTOR pathway and inducers of apoptosis in breast cancer cells” (Eur J Med Chem, 2017)

What was measured:
Format in all cases: functional
HCT-15 = test: Cytotoxicity against human HCT15 cells assessed as cell growth at 100 uM after 48 hrs by sulforhodamine B assay relative to control; conditions: HCT-15, 48 h, read-out: Activity
T47D [1] = test: Cytotoxicity against human T47D cells assessed as cell growth at 0.1 uM after 48 hrs by sulforhodamine B assay relative to control; conditions: read-out: Activity
CCRF-CEM [2] = test: Cytotoxicity against human CCRF-CEM cells assessed as cell growth at 100 uM after 48 hrs by sulforhodamine B assay relative to control; conditions: read-out: Activity
COLO 205 = test: Cytotoxicity against human COLO205 cells assessed as cell growth at 1 uM after 48 hrs by sulforhodamine B assay relative to control; conditions: COLO 205, 48 h, read-out: Activity
RPMI-8226 = test: Cytotoxicity against human RPMI8226 cells assessed as cell growth at 10 uM after 48 hrs by sulforhodamine B assay relative to control; conditions: RPMI-8226, 48 h, read-out: Activity
KM12 [3] = test: Cytotoxicity against human KM12 cells assessed as cell growth at 1 uM after 48 hrs by sulforhodamine B assay relative to control; conditions: KM12, 48 h, read-out: Activity
SF-268 = test: Cytotoxicity against human SF268 cells assessed as cell growth at 100 uM after 48 hrs by sulforhodamine B assay relative to control; conditions: SF-268, 48 h, read-out: Activity
SN12C [4] = test: Cytotoxicity against human SN12C cells assessed as cell growth at 10 uM after 48 hrs by sulforhodamine B assay relative to control; conditions: read-out: Activity
SK-MEL-5 = test: Cytotoxicity against human SK-MEL-5 cells assessed as cell growth at 100 uM after 48 hrs by sulforhodamine B assay relative to control; conditions: SK-MEL-5, 48 h, read-out: Activity
SN12C [5] = test: Cytotoxicity against human SN12C cells assessed as cell growth at 0.1 uM after 48 hrs by sulforhodamine B assay relative to control; conditions: read-out: Activity
TK-10 [6] = test: Cytotoxicity against human TK10 cells assessed as cell growth at 10 uM after 48 hrs by sulforhodamine B assay relative to control; conditions: TK-10, 48 h, read-out: Activity
MDA-MB-468 = test: Cytotoxicity against human MDA-MB-468 cells assessed as cell growth at 100 uM after 48 hrs by sulforhodamine B assay relative to control; conditions: MDA-MB-468, 48 h, read-out: Activity
IGROV-1 = test: Cytotoxicity against human IGROV1 cells assessed as cell growth at 1 uM after 48 hrs by sulforhodamine B assay relative to control; conditions: IGROV-1, 48 h, read-out: Activity
CCRF-CEM [7] = test: Cytotoxicity against human CCRF-CEM cells assessed as cell growth at 10 uM after 48 hrs by sulforhodamine B assay relative to control; conditions: read-out: Activity
U-251 = test: Cytotoxicity against human U251 cells assessed as cell growth at 0.01 uM after 48 hrs by sulforhodamine B assay relative to control; conditions: U-251, 48 h, read-out: Activity
SF-539 [8] = test: Cytotoxicity against human SF539 cells assessed as cell growth at 1 uM after 48 hrs by sulforhodamine B assay relative to control; conditions: SF-539, 48 h, read-out: Activity
SK-MEL-28 = test: Cytotoxicity against human SK-MEL-28 cells assessed as growth inhibition after 48 hrs by sulforhodamine B assay; conditions: SK-MEL-28, 48 h
PC-3 [9] = test: Cytotoxicity against human PC3 cells assessed as cell growth at 0.1 uM after 48 hrs by sulforhodamine B assay relative to control; conditions: PC-3, 48 h, read-out: Activity
HCC 2998 = test: Cytotoxicity against human HCC2998 cells assessed as cell growth at 100 uM after 48 hrs by sulforhodamine B assay relative to control; conditions: HCC 2998, 48 h, read-out: Activity
T47D [10] = test: Cytotoxicity against human T47D cells assessed as growth inhibition after 48 hrs by sulforhodamine B assay
786-0 [11] = test: Cytotoxicity against human 786-0 cells assessed as cell growth at 10 uM after 48 hrs by sulforhodamine B assay relative to control; conditions: 786-0, 48 h, read-out: Activity
T47D [12] = test: Cytotoxicity against human T47D cells assessed as cell growth at 0.01 uM after 48 hrs by sulforhodamine B assay relative to control; conditions: read-out: Activity
786-0 [13] = test: Cytotoxicity against human 786-0 cells assessed as cell growth at 1 uM after 48 hrs by sulforhodamine B assay relative to control; conditions: 786-0, 48 h, read-out: Activity
Hs-578T = test: Cytotoxicity against human Hs 578T cells assessed as cell growth at 100 uM after 48 hrs by sulforhodamine B assay relative to control; conditions: read-out: Activity
SNB-19 = test: Cytotoxicity against human SNB19 cells assessed as cell growth at 0.1 uM after 48 hrs by sulforhodamine B assay relative to control; conditions: SNB-19, 48 h, read-out: Activity
KM12 [14] = test: Cytotoxicity against human KM12 cells assessed as cell growth at 0.01 uM after 48 hrs by sulforhodamine B assay relative to control; conditions: KM12, 48 h, read-out: Activity
HCT-116 = test: Cytotoxicity against human HCT116 cells assessed as cell growth at 0.01 uM after 48 hrs by sulforhodamine B assay relative to control; conditions: HCT-116, 48 h, read-out: Activity
UACC-62 = test: Cytotoxicity against human UACC62 cells assessed as cell growth at 1 uM after 48 hrs by sulforhodamine B assay relative to control; conditions: UACC-62, 48 h, read-out: Activity
NCI/ADR-RES = test: Cytotoxicity against human NCI/ADR-RES cells assessed as cell growth at 1 uM after 48 hrs by sulforhodamine B assay relative to control; conditions: read-out: Activity
SF-539 [15] = test: Cytotoxicity against human SF539 cells assessed as cell growth at 0.1 uM after 48 hrs by sulforhodamine B assay relative to control; conditions: SF-539, 48 h, read-out: Activity
SN12C [16] = test: Cytotoxicity against human SN12C cells assessed as cell growth at 1 uM after 48 hrs by sulforhodamine B assay relative to control; conditions: read-out: Activity
OVCAR-3 = test: Cytotoxicity against human OVCAR3 cells assessed as growth inhibition after 48 hrs by sulforhodamine B assay; conditions: OVCAR-3, 48 h
MDA-MB-435 = test: Cytotoxicity against human MDA-MB-435 cells assessed as cell growth at 1 uM after 48 hrs by sulforhodamine B assay relative to control; conditions: MDA-MB-435, 48 h, read-out: Activity
PC-3 [17] = test: Cytotoxicity against human PC3 cells assessed as growth inhibition after 48 hrs by sulforhodamine B assay; conditions: PC-3, 48 h
NCI-H460 = test: Cytotoxicity against human NCI-H460 cells assessed as cell growth at 0.1 uM after 48 hrs by sulforhodamine B assay relative to control; conditions: NCI-H460, 48 h, read-out: Activity
TK-10 [18] = test: Cytotoxicity against human TK10 cells assessed as cell growth at 0.1 uM after 48 hrs by sulforhodamine B assay relative to control; conditions: TK-10, 48 h, read-out: Activity

COc1cc(C(=O)/C=C/c2cc(-c3cc(OC)c(OC)c(OC)c3)n[nH]2)cc(OC)c1OC
growth at 100 µM (HCT-15): -72% | growth at 0.1 µM (T47D [1]): 92% | growth at 100 µM (CCRF-CEM [2]): 2% | growth at 1 µM (COLO 205): 98% | growth at 10 µM (RPMI-8226): -38% | growth at 1 µM (KM12 [3]): 79% | growth at 100 µM (SF-268): -75% | growth at 10 µM (SN12C [4]): -86% | growth at 100 µM (SK-MEL-5): -98% | growth at 0.1 µM (SN12C [5]): 98% | growth at 10 µM (TK-10 [6]): -98% | growth at 100 µM (MDA-MB-468): -91% | growth at 1 µM (IGROV-1): 99% | growth at 10 µM (CCRF-CEM [7]): -7% | growth at 0.01 µM (U-251): 96% | growth at 1 µM (SF-539 [8]): 66% | LC50 (SK-MEL-28): 6.07 µM | TGI (SK-MEL-28): 3.33 µM | growth at 0.1 µM (PC-3 [9]): 92% | growth at 100 µM (HCC 2998): -89% | LC50 (T47D [10]): 5.86 µM | TGI (T47D [10]): 2.57 µM | growth at 10 µM (786-0 [11]): -77% | growth at 0.01 µM (T47D [12]): 91% | growth at 1 µM (786-0 [13]): 80% | growth at 100 µM (Hs-578T): -4% | growth at 0.1 µM (SNB-19): 90% | growth at 0.01 µM (KM12 [14]): 101% | growth at 0.01 µM (HCT-116): 97% | growth at 1 µM (UACC-62): 90% | growth at 1 µM (NCI/ADR-RES): 95% | growth at 0.1 µM (SF-539 [15]): 91% | growth at 1 µM (SN12C [16]): 78% | LC50 (OVCAR-3): 5.79 µM | TGI (OVCAR-3): 3.18 µM | growth at 1 µM (MDA-MB-435): 79% | LC50 (PC-3 [17]): 7.36 µM | TGI (PC-3 [17]): 3.29 µM | growth at 0.1 µM (NCI-H460): 104% | growth at 0.1 µM (TK-10 [18]): 109%

COc1ccc(C(=O)/C=C/c2cc(-c3ccc(OC)c(OC)c3)n[nH]2)cc1OC
growth at 100 µM (HCT-15): -10% | growth at 0.1 µM (T47D [1]): 86% | growth at 100 µM (CCRF-CEM [2]): -20% | growth at 1 µM (COLO 205): 82% | growth at 10 µM (RPMI-8226): -30% | growth at 1 µM (KM12 [3]): 37% | growth at 100 µM (SF-268): -25% | growth at 10 µM (SN12C [4]): -40% | growth at 100 µM (SK-MEL-5): -96% | growth at 0.1 µM (SN12C [5]): 98% | growth at 10 µM (TK-10 [6]): 25% | growth at 100 µM (MDA-MB-468): -64% | growth at 1 µM (IGROV-1): 94% | growth at 10 µM (CCRF-CEM [7]): -5% | growth at 0.01 µM (U-251): 95% | growth at 1 µM (SF-539 [8]): 35% | GI50 (SK-MEL-28): 1.82 µM | TGI (SK-MEL-28): 4.82 µM | growth at 0.1 µM (PC-3 [9]): 95% | growth at 100 µM (HCC 2998): -91% | GI50 (T47D [10]): 1.36 µM | TGI (T47D [10]): 6.65 µM | growth at 10 µM (786-0 [11]): -32% | growth at 0.01 µM (T47D [12]): 82% | growth at 1 µM (786-0 [13]): 78% | growth at 100 µM (Hs-578T): 18% | growth at 0.1 µM (SNB-19): 91% | growth at 0.01 µM (KM12 [14]): 102% | growth at 0.01 µM (HCT-116): 94% | growth at 1 µM (UACC-62): 89% | growth at 1 µM (NCI/ADR-RES): 89% | growth at 0.1 µM (SF-539 [15]): 89% | growth at 1 µM (SN12C [16]): 85% | GI50 (OVCAR-3): 1.96 µM | TGI (OVCAR-3): 4.72 µM | growth at 1 µM (MDA-MB-435): 87% | GI50 (PC-3 [17]): 1.98 µM | TGI (PC-3 [17]): 35.7 µM | growth at 0.1 µM (NCI-H460): 99% | growth at 0.1 µM (TK-10 [18]): 96%

COc1ccc(C(=O)/C=C/c2cc(-c3cc(OC)c(OC)c(OC)c3)n[nH]2)cc1OC
growth at 100 µM (HCT-15): -60% | growth at 0.1 µM (T47D [1]): 98% | growth at 100 µM (CCRF-CEM [2]): -15% | growth at 1 µM (COLO 205): 95% | growth at 10 µM (RPMI-8226): -50% | growth at 1 µM (KM12 [3]): 54% | growth at 100 µM (SF-268): -88% | growth at 10 µM (SN12C [4]): -82% | growth at 100 µM (SK-MEL-5): -92% | growth at 0.1 µM (SN12C [5]): 94% | growth at 10 µM (TK-10 [6]): 100% | growth at 100 µM (MDA-MB-468): -87% | growth at 1 µM (IGROV-1): 96% | growth at 10 µM (CCRF-CEM [7]): -26% | growth at 0.01 µM (U-251): 96% | growth at 1 µM (SF-539 [8]): 67% | LC50 (SK-MEL-28): 6.25 µM | TGI (SK-MEL-28): 3.34 µM | growth at 0.1 µM (PC-3 [9]): 95% | growth at 100 µM (HCC 2998): -86% | LC50 (T47D [10]): > 100 µM | TGI (T47D [10]): 4.36 µM | growth at 10 µM (786-0 [11]): -88% | growth at 0.01 µM (T47D [12]): 93% | growth at 1 µM (786-0 [13]): 74% | growth at 100 µM (Hs-578T): -15% | growth at 0.1 µM (SNB-19): 93% | growth at 0.01 µM (KM12 [14]): 97% | growth at 0.01 µM (HCT-116): 99% | growth at 1 µM (UACC-62): 95% | growth at 1 µM (NCI/ADR-RES): 90% | growth at 0.1 µM (SF-539 [15]): 98% | growth at 1 µM (SN12C [16]): 80% | LC50 (OVCAR-3): 5.97 µM | TGI (OVCAR-3): 3.17 µM | growth at 1 µM (MDA-MB-435): 70% | LC50 (PC-3 [17]): 5.76 µM | TGI (PC-3 [17]): 2.8 µM | growth at 0.1 µM (NCI-H460): 101% | growth at 0.1 µM (TK-10 [18]): 90%
